Assay results: US20250296938A1, “Compounds that Interact with the Ras Superfamily for the Treatment of Cancers, Inflammatory Diseases, Rasopathies, and Fibrotic Disease” (SHY Therapeutics, LLC, priority 2018, published 2025)

Assays:
MAPK phosphorylation = assay: MAPK cell-based phosphorylation assay (ELISA or Western), PANC-1; conditions: Homo sapiens; 10 μM, PANC-1 (Table 4C)
Description: Cell lines: Tumor-derived pancreatic cancer cell line PANC-1 was purchased from ATCC and were and grown in DMEM-High Glucose supplemented with penicillin (100 U/mL), streptomycin (100 μg/mL), and 10% heat-inactivated FBS at 37° C. in a humidified incubator with 5% CO2.
Method: Cells were plated at 7500 cells/well density in a 96-well plate, allowed 3 hours to adhere to the plate, then starved in DMEM plus 0.5% FBS overnight. The small molecules to be tested were added to the cells in the final concentration of 10 μM in the presence of 0.3% DMSO for 6 hours incubation at 37° C. For IC50 value determination, serial dilutions of compounds were added to cells under the same conditions. Next, cells were stimulated with 1.5 ng/mL EGF for 15 minutes followed by cell fixation with 4% formaldehyde in PBS at room temperature for 20 minutes. Cell-direct ELISA determined phosphorylation level of MAPK.
Cell-direct ELISA: For each well, cells were permeabilized with 0.1% PBS-Triton X-100, quenched with 0.06% H2O2 in 0.1% PBS-Triton X-100, and probed with anti-phospho-MAPK antibodies (R&D Systems) followed by HRP-conjugated secondary antibody (Jackson Immunoresearch, West Grove, PA). Next, a 50 μM solution of the fluorescent substrate AmpliFlu Red (Sigma) was added and incubated at RT for 20 minutes. At the end of the incubation time, phosphorylation level of MAPK was determined by measuring fluorescence at 595 nm using SpectraMax M3 plate reader (Molecular Devices).
Cell lines: Human NSCLC cells NCI-H1975 and NCI-H1299, and tumor-derived pancreatic cancer cell lines Panc-1, MIA-PaCa-2, and BxPC3, were all purchased from American Type Culture Collection and grown in complete RPMI medium (BxPC3, NCI-H1975 and NCI-H1299) or DMEM-High Glucose (Panc1 and MIA-PaCa-2), supplemented with penicillin (100 U/mL), streptomycin (100 μg/mL), and 10% heat-inactivated FBS at 37° C. in a humidified incubator with 5% CO2.
(§1) Method: Cells were plated at 350000 cells/well density in a 12-well plate, allowed 3 hours to adhere to the plate, then starved in the appropriate medium in the presence of 0.5% FBS overnight. The small molecules to be tested were added to the cells in the final concentration of 10 μM in the presence of 0.3% DMSO for 6 hours incubation at 37° C. For IC50 value determination, serial dilutions of compounds were added to cells under the same conditions. Next, cells were stimulated with 1.5 ng/ml EGF for 15 minutes then cells were lysed with lysis buffer containing 1% Triton X-100, EDTA, and Halt™ Protease & Phosphatase Inhibitor Cocktail (Thermo Scientific). Protein concentration was assessed by BCA protein assay (Thermo Scientific). Phosphorylation level of MAPK was determined by western blot.
(§2) Western blot protocol: Equal amounts of protein (15-50 μg) were separated by SDS-PAGE and transferred to nitrocellulose membranes (Invitrogen by Thermo Fisher Scientific). The membrane was stained with Ponceau S Stain (Boston BioProducts) to verify uniform protein loading. Membranes were blocked with 10% milk and phosphorylation levels of MAPK were assessed by incubating overnight at 4° C. with anti-phospho-p44/42 (Thr202/Tyr204) antibody (Cell Signaling) followed by HRP-conjugated secondary antibody (Jackson Immunoresearch, West Grove, PA). Bands were incubated in Amersham ECL Prime Western Blotting Detection Reagent (GE Healthcare) and visualized using the ChemiDoc MP imaging system (Bio-Rad).

AKT phosphorylation = assay: Western AKT cell-based phosphorylation assay, PANC-1; conditions: Homo sapiens, PANC-1 (Table 4C)
Description: Human tumor-derived pancreatic cancer cell line Panc-1 was purchased from American Type Culture Collection and grown in complete DMEM-High Glucose supplemented with penicillin (100 U/mL), streptomycin (100 μg/mL), and 10% heat-inactivated FBS at 37° C. in a humidified incubator with 5% CO2.
as §1, with “C.” for “C. For IC50 value determination, serial dilutions of compounds were added to cells under the same conditions.”, “Akt” for “MAPK”
as §2, with “Akt” for “MAPK”, “anti-phospho-Akt (Ser473)” for “anti-phospho-p44/42 (Thr202/Tyr204)”

| Structure (SMILES) | inhibition at 10 µM (MAPK phosphorylation) | inhibition at 10 µM (AKT phosphorylation) |
| --- | --- | --- |
| COc1cccc(-c2sc3nc(-c4nccn4C)nc(N[C@@H]4CC[C@H](OC)C4)c3c2-c2ccccc2)c1F [drawing 484] | 76 to 100% | 76 to 100% |
| COC1CCC(Nc2nc(-c3nccn3C)nc3sc(-c4cccc(O)c4F)c(-c4ccccc4)c23)C1 (stereo not shown) [drawing 485] | 76 to 100% | 0% |
| COc1c(F)cccc1-c1sc2nc(-c3nccn3C)nc(NC3CCC(OC)C3)c2c1-c1ccccc1 (stereo not shown) [drawing 486] | 76 to 100% | 76 to 100% |
| COc1c(F)cccc1-c1sc2nc(-c3nccn3C)nc(N[C@@H]3CC[C@H](OC)C3)c2c1-c1ccccc1 [drawing 487] | 76 to 100% | 76 to 100% |
| COC1CCC(Nc2nc(-c3nccn3C)nc3sc(-c4cccc5[nH]ncc45)c(-c4ccccc4)c23)C1 (stereo not shown) [drawing 488] | 76 to 100% | 76 to 100% |
| CO[C@H]1CC[C@@H](Nc2nc(-c3nccn3C)nc3sc(-c4cccc5[nH]ncc45)c(-c4ccccc4)c23)C1 [drawing 489] | 76 to 100% | 0% |
| COc1cccc(-c2sc3nc(-c4nccn4C)nc(N4CCC(OC)C4)c3c2-c2ccccc2)c1F (stereo not shown) [drawing 490] | 76 to 100% | 76 to 100% |
| COc1cccc(-c2sc3nc(-c4nccn4C)nc(N[C@H]4C[C@@H](OC)C4)c3c2-c2ccccc2)c1F [drawing 491] | 76 to 100% | 76 to 100% |
| CO[C@H]1C[C@@H](Nc2nc(-c3nccn3C)nc3sc(-c4cnn(C)c4)c(-c4ccccc4)c23)C1 [drawing 492] | 76 to 100% | 26 to 50% |
| COc1cccc(-c2sc3nc(-c4nccn4C)nc(NC4CCC(OC)C4)c3c2C)c1F (stereo not shown) [drawing 493] | 76 to 100% | 0% |
| COc1cccc(-c2sc3nc(-c4nccn4C)nc(N[C@@H]4CC[C@H](OC)C4)c3c2C)c1F [drawing 494] | 76 to 100% | 0% |
| COC1CCC(Nc2nc(-c3nccn3C)nc3sc(-c4cccc5[nH]ncc45)c(C)c23)C1 (stereo not shown) [drawing 495] | 76 to 100% | 76 to 100% |
| COCCn1ccnc1-c1nc(O)c2scc(-c3ccc(OCC(C)C)nc3)c2n1 [drawing 498] | 76 to 100% | 0% |
| CC(C)COc1ccc(-c2csc3c(O)nc(-c4nccn4Cc4ccccn4)nc23)cn1 [drawing 499] | 76 to 100% | 0% |
| COc1cccc(Cn2ccnc2-c2nc(O)c3scc(-c4ccc(OCC(C)C)nc4)c3n2)c1 [drawing 500] | 76 to 100% | 0% |
| CO[C@H]1CC[C@@H](Nc2nc(-c3nccn3C)nc(C(=O)N3CCc4c(O)cccc4C3)c2C)C1 [drawing 501] | 26 to 50% | 1 to 25% |
| CO[C@H]1C[C@@H](Nc2nc(-c3ccccn3)nc3sccc23)C1 [drawing 502] | 1 to 25% | 0% |
| CO[C@H]1C[C@@H](Nc2nc(-c3nccn3C)nc3sccc23)C1 [drawing 503] | 1 to 25% | 0% |
| Cn1ccc(-c2sc3nc(-c4nccn4C)nc(O)c3c2-c2ccccc2)n1 [drawing 504] | 0% | 0% |

| Structure (SMILES) | inhibition at 10 µM (MAPK phosphorylation) | inhibition at 10 µM (AKT phosphorylation) |
| --- | --- | --- |
| CO[C@H]1C[C@@H](Nc2nc(-c3nccn3C)nc3sc(-c4ccn(C)n4)c(-c4ccccc4)c23)C1 [drawing 505] | 76 to 100% | 76 to 100% |
| CO[C@H]1C[C@H](Nc2nc(-c3nccn3C)nc3sc(-c4ccn(C)n4)c(-c4ccccc4)c23)C1 [drawing 506] | 76 to 100% | 76 to 100% |
| CN(C)CCOCCNc1nc(-c2nccn2C)nc2sc(-c3ccn(C)n3)c(-c3ccccc3)c12 [drawing 507] | 0% | 0% |
| Cn1ccc(-c2sc3nc(-c4nccn4C)nc(N[C@H]4C[C@@H](O)C4)c3c2-c2ccccc2)n1 [drawing 508] | 1 to 25% | 0% |
| CO[C@H]1C[C@@H](Nc2nc(-c3ncc[nH]3)nc3sc(-c4ccn(C)n4)c(-c4ccccc4)c23)C1 [drawing 510] | 0% | 0% |
| CO[C@H]1CC[C@@H](Nc2nc(-c3ncc[nH]3)nc3sc(-c4ccn(C)n4)c(-c4ccccc4)c23)C1 [drawing 511] | 76 to 100% | 76 to 100% |
| CO[C@H]1CC[C@@H](Nc2nc(-c3nccn3C)nc3sc(-c4ccn(C(C)C)n4)c(-c4ccccc4)c23)C1 [drawing 512] | 76 to 100% | 76 to 100% |
| COc1nc(-c2ccccn2)nc2c(-c3ccccn3)csc12 [drawing 513] | 0% | 0% |
| CO[C@H]1C[C@@H](Nc2nc(-c3nccn3C)nc3sc(-c4ccn(C)n4)c(C)c23)C1 [drawing 514] | 76 to 100% | 0% |
| CO[C@H]1CC[C@@H](Nc2nc(-c3nccn3C)nc3sc(-c4ccn(C)n4)c(C)c23)C1 [drawing 515] | 0% | 0% |
| Cc1c(-c2ccn(C)n2)sc2nc(-c3nccn3C)nc(NCCCS(C)(=O)=O)c12 [drawing 516] | 0% | 0% |
| Cc1c(-c2ccn(C)n2)sc2nc(-c3nccn3C)nc(NCCCC(=O)N(C)C)c12 [drawing 517] | 0% | 0% |
| Cc1c(-c2ccn(C)n2)sc2nc(-c3nccn3C)nc(NCCOC(=O)N(C)C)c12 [drawing 518] | 0% | 0% |
| CO[C@H]1CC[C@@H](Nc2nc(-c3nccn3C)nc3sc(-c4ccn(C(C)C)n4)c(C)c23)C1 [drawing 519] | 76 to 100% | 0% |
| CO[C@H]1C[C@@H](Nc2nc(-c3nccn3C)nc3sc(C(=O)NC(C)C)c(-c4ccccc4)c23)C1 [drawing 520] | 0% | 0% |
| COCCNC(=O)c1sc2nc(-c3nccn3C)nc(N[C@H]3C[C@@H](OC)C3)c2c1-c1ccccc1 [drawing 521] | 0% | 0% |
| CO[C@H]1C[C@@H](Nc2nc(-c3nccn3C)nc3sc(C(=O)N4CCOCC4)c(-c4ccccc4)c23)C1 [drawing 522] | 0% | 0% |
| COC1CCN(C(=O)c2sc3nc(-c4nccn4C)nc(N[C@H]4C[C@@H](OC)C4)c3c2-c2ccccc2)C1 (stereo partly shown) [drawing 523] | 0% | 0% |
| CO[C@H]1CC[C@@H](Nc2nc(-c3nccn3C)nc3sc(C(=O)NC(C)C)c(-c4ccccc4)c23)C1 [drawing 524] | 0% | 0% |
